This is an account of results in ChEMBL document CHEMBL1123332, “Synthesis and anti-herpes-virus activity of acyclic 2'-deoxyguanosine analogues related to 9-[(1,3-dihydroxy-2-propoxy)methyl]guanine” (1986).

Assay [1] is described as follows: Antiviral activity determined against herpes simplex type 1 (F strain) by plaque reduction in Vero cells. The following applies: Chlorocebus sabaeus, read-out: ID50 (the source's name). Format: functional.
In assay [2] the test system is Thymidine kinase (Human alphaherpesvirus 1). Briefly: Phosphorylation of compound by purified HSV-1 (F strain) thymidine kinase. The arrangement: concentration or dose not given beside the values.
In assay [3] the test system is Mus musculus. Put plainly: Mean survival time of HSV-2 encephalitis infectuous mice upon subcutaneous treatment with the compound at a dose of 20 mg/kg. Type of assay: functional.
The test system of assay [4] is Mus musculus. Put plainly: Effect of subcutaneous treatment with the compound on HSV-2 encephalitis infection in mice at a dose of 20 mg/kg; 10/16. Format: functional.
Assay [5] deals with Mus musculus. Put plainly: Effect of subcutaneous treatment with the compound on HSV-2 encephalitis infection in mice at a dose of 20 mg/kg; 3/10. Type of assay: functional.
Assay [6] deals with Mus musculus. Briefly: Effect of subcutaneous treatment with the compound on HSV-2 encephalitis infection in mice at a dose of 20 mg/kg; 2/10. Type of assay: functional.

pIC50: −log10 of the molar value.

As for `Nc1nc(O)c2ncn(CO[C@H](CO)COC3CCCC3)c2n1`, the pIC50 in assay [1] is 4.40. Besides, the Activity in assay [2] worked out at 21%.
Regarding `Nc1nc2c(ncn2COC(CO)CO)c(=O)[nH]1` [GANCICLOVIR], the MST in the assay with Mus musculus [3] worked out at 13.5 days. For the same molecule, in assay [1], the pIC50 is 6.70. Further, the Survivors with Mus musculus [4] was 10.
Take `[N-]=[N+]=NC[C@@H](CO)OCn1cnc2c(O)nc(N)nc21`: the pIC50 in assay [1] was below 4.00. For the same molecule, in assay [2], the Activity was determined as 25%.
Consider `Nc1nc2c(ncn2COCCO)c(=O)[nH]1` [ACYCLOVIR], for which the pIC50 in assay [1] was 6.30.
As to `Nc1nc(O)c2ncn(CCOC(CO)CO)c2n1`, in assay [1], the pIC50 was below 4.00. In assay [2], the Activity was 35%.
With `COC[C@@H](CO)OCn1cnc2c(O)nc(N)nc21`, in assay [1], the pIC50 was 4.15. In addition, in assay [2], the Activity was determined as 32%.
Turning to `Nc1nc2c(ncn2CC(CO)CO)c(=O)[nH]1` [TIVICICLOVIR], in assay [1], the pIC50 is below 4.00.
On to `CC(CO)(CO)COCn1cnc2c(O)nc(N)nc21`, for which the pIC50 in assay [1] was below 4.00. The molecule also registered an Activity in assay [2] of 100%.
For `C[C@@H](CO)OCn1cnc2c(O)nc(N)nc21`, in that order: 5.64 and 28%.
The matching figures for `Nc1nc(O)c2ncn(CO[C@H](CO)CCO)c2n1`: 4.02 and 111%.
The matching figures for `NC[C@@H](CO)OCn1cnc2c(O)nc(N)nc21`: 4.49 and below 10%.
For the molecule `Nc1nc(O)c2ncn(COCCOC(CO)CO)c2n1`, the Survivors with Mus musculus [5] was 3. For the same molecule, in the assay with Mus musculus [3], the MST was found to be 10.3 days. For the same molecule, the pIC50 in assay [1] was below 5.15. In assay [2], this molecule had an Activity of 23%.
For the molecule `Nc1nc(O)c2ncn(CO[C@H](CO)CF)c2n1`, the MST in the assay on Mus musculus [3] stood at 8.5 days. For the same molecule, the pIC50 in assay [1] is below 5.15. The Activity in assay [2] was 67%. Further, the Survivors in the assay with Mus musculus [6] stood at 2.
Take `Nc1nc(O)c2ncn(CO[C@H](CO)CCl)c2n1`: the pIC50 in assay [1] was 4.22. Also, in assay [2], the Activity amounted to 33%.
